Source: ChEMBL document CHEMBL3880441, “Irreversible covalent inhibitors of the GTPASE K-RAS G12C” (2014)

Tested on: GTPase KRas (Homo sapiens), P01116 [G12C]
Test: Binding affinity to His-tagged KRAS (1 to 169 residues) G12C mutant (unknown origin) at 10 to 100 uM after 24 hrs by mass spectrometric method

Activity [%] | Structure (SMILES)
> 15 | C=Cc1ccc(S(=O)(=O)NC[C@H]2C[C@@H]3O[C@H](COCc4ccccc4)[C@@H](OCc4ccccc4)[C@@H]3O2)cc1
10 to 15 | C=Cc1cccc(S(=O)(=O)NC[C@@H]2C[C@@H]3O[C@H](CO)[C@@H](OCc4ccccc4)[C@@H]3O2)c1
10 to 15 | C=CS(=O)(=O)NC[C@@H]1C[C@@H]2O[C@H](COCc3ccccc3)[C@@H](OCc3ccccc3)[C@@H]2O1
10 to 15 | C=Cc1cccc(S(=O)(=O)NCCOc2ccc3ccccc3c2)c1
5 to 10 | C=Cc1ccccc1S(=O)(=O)NCCOc1ccc2ccccc2c1
5 to 10 | C=Cc1ccc(S(=O)(=O)NCCNc2ccc3ccccc3c2)cc1
10 to 15 | C=Cc1ccccc1S(=O)(=O)NC[C@H]1C[C@@H]2O[C@H](COCc3ccccc3)[C@@H](OCc3ccccc3)[C@@H]2O1
10 to 15 | C=Cc1ccc(S(=O)(=O)NCCOc2ccc3ccccc3c2)cc1
10 to 15 | C=Cc1ccccc1S(=O)(=O)NCCOc1cccc2ccccc12
10 to 15 | C=CS(=O)(=O)NCCOc1cccc2ccccc12
5 to 10 | C=Cc1cccc(S(=O)(=O)NC[C@H]2C[C@@H]3O[C@H](COCc4ccccc4)[C@@H](OCc4ccccc4)[C@@H]3O2)c1
0.5 to 5 | C=CC(=O)NC[C@@H]1C[C@@H]2O[C@H](COCc3ccccc3)[C@@H](OCc3ccccc3)[C@@H]2O1
5 to 10 | C=CS(=O)(=O)NCCNc1ccc2ccccc2c1
10 to 15 | C=Cc1ccc(S(=O)(=O)NC[C@@H]2C[C@@H]3O[C@H](COCc4ccccc4)[C@@H](OCc4ccccc4)[C@@H]3O2)cc1
10 to 15 | C=Cc1ccccc1S(=O)(=O)NCCNc1ccc2ccccc2c1
5 to 10 | C=CS(=O)(=O)NC[C@H]1C[C@@H]2O[C@H](CO)[C@@H](OCc3ccccc3)[C@@H]2O1

Activity [%] | Structure (SMILES)
> 15 | C=Cc1cccc(S(=O)(=O)NC[C@@H]2C[C@@H]3O[C@H](COCc4ccccc4)[C@@H](OCc4ccccc4)[C@@H]3O2)c1
10 to 15 | C=CS(=O)(=O)NCCOc1ccc2ccccc2c1
> 15 | C=Cc1ccccc1S(=O)(=O)NC[C@@H]1C[C@@H]2O[C@H](CO)[C@@H](OCc3ccccc3)[C@@H]2O1
0.5 to 5 | C=CC(=O)NC[C@H]1C[C@@H]2O[C@H](CO)[C@@H](OCc3ccccc3)[C@@H]2O1
10 to 15 | C=CS(=O)(=O)NCCNc1cccc2ccccc12
5 to 10 | C=Cc1cccc(S(=O)(=O)NCCOc2cccc3ccccc23)c1
10 to 15 | C=Cc1ccc(S(=O)(=O)NC[C@H]2C[C@@H]3O[C@H](CO)[C@@H](OCc4ccccc4)[C@@H]3O2)cc1
10 to 15 | C=Cc1ccccc1S(=O)(=O)NC[C@H]1C[C@@H]2O[C@H](CO)[C@@H](OCc3ccccc3)[C@@H]2O1
0.5 to 5 | C=CC(=O)NC[C@@H]1C[C@@H]2O[C@H](CO)[C@@H](OCc3ccccc3)[C@@H]2O1
10 to 15 | C=Cc1ccccc1S(=O)(=O)NC[C@@H]1C[C@@H]2O[C@H](COCc3ccccc3)[C@@H](OCc3ccccc3)[C@@H]2O1
0.5 to 5 | C=CC(=O)NC[C@H]1C[C@@H]2O[C@H](COCc3ccccc3)[C@@H](OCc3ccccc3)[C@@H]2O1
> 15 | C=Cc1ccccc1S(=O)(=O)NCCNc1cccc2ccccc12
10 to 15 | C=CS(=O)(=O)NC[C@H]1C[C@@H]2O[C@H](COCc3ccccc3)[C@@H](OCc3ccccc3)[C@@H]2O1
10 to 15 | C=Cc1ccc(S(=O)(=O)NCCNc2cccc3ccccc23)cc1
5 to 10 | C=Cc1cccc(S(=O)(=O)NC[C@H]2C[C@@H]3O[C@H](CO)[C@@H](OCc4ccccc4)[C@@H]3O2)c1
5 to 10 | C=Cc1ccc(S(=O)(=O)NC[C@@H]2C[C@@H]3O[C@H](CO)[C@@H](OCc4ccccc4)[C@@H]3O2)cc1
